Source: US20070003531A1, “Methods for improving immunotherapy by enhancing survival of antigen-specific cytotoxic T lymphocytes” (University of Connecticut, priority 2005, published 2007)

Tests used:
[1] = tested on: MART-127-35 epitope specific human primary CTL; experiment: AICD induction and quantitation in epitope specific primary CTL (tetramer/annexin V FACS); format: cell-based; conditions: pre-incubation about 45 min, restimulation with MART-127-35 peptide pulsed T2 cells, kinase inhibitors 25 μM, z-VAD-fmk 100 μM, Fc chimeras 10 μg/ml
Protocol: FIG. 10. Effect of external death receptor blockade and MAP kinase inhibitors on AICD in the epitope specific CTLs upon secondary encounter of the cognate epitope. The CTLs were pre-incubated at optimal concentration for about 45 min. at about 37° C. with pan caspase inhibitor z-VAD-fmk (100 μM); human Fas/Fc chimera, human TNF-RI/Fc chimera, human TRAIL-RI/Fc chimera, human TRAIL-RII/Fc chimera and human IFN-γ RI/Fc chimeric proteins (10 μg/ml); p38 kinase inhibitor SB203580, JNK inhibitor anthra[1,9-cd]pyrazol-6(2H)-one (SP600125), […] inhibitor PD98059 (25 μM). Then the pretreated as well as untreated CTLs were incubated with T2 cells either alone or loaded with peptide. About 4 hours after secondary exposure cells were stained for determining: (A) Number of tetramer^+ cells out of the CD8^+ T cells [Top panel]; number of tetramer^+/Annexin V^+ and tetramer^+/Annexin^− populations [Bottom panel]. […] (B) Effect of the MAP kinase inhibitors on IFN-γ response by the effector cells.
AICD induction and quantitation. AICD in the human primary CTL primed and expanded specifically for melanoma epitope MART-127-35 was induced by re-exposure of the CTLs to MART-127-35 peptide (1 μg/ml) as reported previously. Staurosporine mediated death was induced by exposure of CTL to 1 μM staurosporine for 4 hr. Quantitation of AICD and the effects of various inhibitors on AICD of CTLs, were carried out by annexin-V staining followed by FACS analyses as reported previously.
In test whether or not the epitope specific primary CTLs undergo AICD, the activated CTLs were exposed to peptide [1 μg/ml] loaded T2 cells (Effector: Target=100) at different time points of the cultures. Thereafter, the evidence of apoptosis was determined by flow cytometry with triple color staining (CD8, MART-127-35/HLA-A2 tetramer and annexin V) at different time points (4-18 h). Experiments were carried out in triplicate wells and significance was calculated by One-way analysis of variance (ANOVA) using Sigma Stat statistical software, Chicago, Ill.
To evaluate the effect of various agents in modulating AICD, the CTLs were pre-incubated with various compounds at optimal concentration for 45 min. at 37° C. and then exposed to T2 cells alone or loaded with peptide.

[2] = tested on: PARP cleavage in Jurkat cells; experiment: PARP cleavage in staurosporine treated Jurkat cells (immunoblot); format: cell-based, human
Protocol: FIG. 1. […] (A) Effect of the JNK inhibitor SP600125 on AICD in the MART-127-35 epitope specific CTL. Histogram represents FACS analysis of the percent of MART-127-35 epitope specific CTLs that were tetramer positive and annexin negative after restimulation with MAGE-3271-279 control peptide (M3) pulsed T2 cells or MART-127-35 peptide (M1) pulsed T2 cells either alone or re-stimulated after pre-incubation with JNK inhibitor SP600125, p38-kinase inhibitor SB203580, ERK1/2 inhibitor PD98059 or caspase-inhibitor z-VAD-fink. MAGE-3271-279. (B) JNK activation results in phosphorylation of c-Jun during AICD in CTL that is blocked by SP600125. Immunoblots show analyses of CTL extracts probed with anti-phosphor-c-Jun, anti-c-Jun, and anti-actin antibodies. […] (i) Jurkat cells were treated with PMA+ionomycin in the absence or presence of SP600125 and JNK activation (c-Jun phosphorylation) was assessed with anti-phospho-c-Jun antibody. […] (ii) Jurkat cells were treated with Staurosporine for 1 and 4 hrs in the absence (S) or presence of caspase inhibitor, z-VAD-fmk (CI), JNK inhibitor, SP600125 (SP) or ERK1/2 inhibitor PD98059 (PD) and cleavage of PARP was detected by immunoblotting, using actin as a loading control. […] Percent annexin positive cells in all samples were quantified by FACS analysis and shown below the blot […]

[3] = tested on: Jurkat cells; experiment: Staurosporine-induced death of Jurkat cells (annexin FACS); format: cell-based, human; conditions: annexin positive cells by FACS
Protocol: FIG. 1. […] (A) Effect of the JNK inhibitor SP600125 on AICD in the MART-127-35 epitope specific CTL. Histogram represents FACS analysis of the percent of MART-127-35 epitope specific CTLs that were tetramer positive and annexin negative after restimulation with MAGE-3271-279 control peptide (M3) pulsed T2 cells or MART-127-35 peptide (M1) pulsed T2 cells either alone or re-stimulated after pre-incubation with JNK inhibitor SP600125, p38-kinase inhibitor SB203580, ERK1/2 inhibitor PD98059 or caspase-inhibitor z-VAD-fink. MAGE-3271-279. (B) JNK activation results in phosphorylation of c-Jun during AICD in CTL that is blocked by SP600125. Immunoblots show analyses of CTL extracts probed with anti-phosphor-c-Jun, anti-c-Jun, and anti-actin antibodies. […] (i) Jurkat cells were treated with PMA+ionomycin in the absence or presence of SP600125 and JNK activation (c-Jun phosphorylation) was assessed with anti-phospho-c-Jun antibody. […] (ii) Jurkat cells were treated with Staurosporine for 1 and 4 hrs in the absence (S) or presence of caspase inhibitor, z-VAD-fmk (CI), JNK inhibitor, SP600125 (SP) or ERK1/2 inhibitor PD98059 (PD) and cleavage of PARP was detected by immunoblotting, using actin as a loading control. […] Percent annexin positive cells in all samples were quantified by FACS analysis and shown below the blot

[4] = tested on: Mart-1 primary CTLs; experiment: Mitochondrial transmembrane potential (DiOC6 staining); format: cell-based, human; conditions: induced by re-stimulation with cognate peptide; data not shown
Protocol: (§1) FIG. 12. Effect of antigen specific secondary stimulation on mitochondrial transmembrane membrane potential (Δψm), pro- and anti-apoptotic protein and expression of cell surface molecules. (A) Differential effect on membrane polarization in Mart-1 primary CTLs (top panel) vs. Jurkat T cells (bottom panel). CTLs were incubated with T2 cells either alone or loaded with peptide. After overnight secondary exposure cells were stained with Mart-1 tetramer/CD8 and DiOC6. Histogram represents the fluorescence of DiOC6 in the gated antigen specific tetramer^+ population (top panel). Jurkat T cells were also analyzed for modulation of membrane potential after TCR-driven stimulation (bottom panel). Values represent the mean±SD of fluorescence intensity triplicates from one out of three separate experiment. *p<0.001 (One Way ANOVA). […] (C) Expression of different cell surface receptors for survival or death signal in antigen specific population upon secondary stimulation. Values on left upper corner represent the geometric mean of the fluorescence intensity for that particular marker when stimulated with T2/MAGE-3271-279 while that on right upper corner represent the geometric mean of the fluorescence intensity when stimulated with T2/MART-127-35.

[5] = tested on: Bcl family proteins in CTL; experiment: Western blot of Bcl family pro- and anti-apoptotic proteins in CTL after secondary stimulation; format: cell-based, human
Protocol: as §1
Washed cell pellets were lysed in RIPA buffer and a cytosolic fraction was prepared by spinning the lysate at 15,000 rpm. Proteins (20 μg/well) were separated on 15% SDS-PAGE, transferred onto nitrocellulose filters, probed with appropriate antibodies. Antibodies for Bcl-2, phospho Bcl-2, Bim, BCI-XL, Bax, Actin were purchased from Santa-Cruz Biotechnology, Santa-Cruz, Calif. Anti-Mcl-1 antibody was purchased from BD Pharmingen, Palo Alto, Calif. Blots were developed by HRP-tagged secondary antibody (Santa-Cruz Biotechnology, Santa-Cruz, Calif.) using a chemoluminescence kit (Amersham Biosciences, Buckinghamshire, U. K.).

[6] = tested on: MART-127-35 epitope specific primary CTL; experiment: DNA fragmentation analysis (agarose gel electrophoresis); format: cell-based, human; conditions: 1 μM staurosporine for 4 hr
Protocol: Standard 2% agarose gel-electrophoresis (panel i) and pulse field DNA gel electrophoresis (panel ii) of: CTL in steady state (C) and after restimulation by the cognate peptide (M1).
DNA fragmentation analysis. DNA fragmentation was assessed by measuring single stranded nick generation, using single stranded DNA nick specific antibody (Alexis Biochemicals, CA, USA) with flow-cytometry and immunofluorescence according to published protocols. Antibody-stained cells were counterstained with 0.1 μg/ml DAPI in PBS for 10 min. Agarose gel electrophoresis was used to detect small oligosomal DNA fragmentation and pulse field electrophoresis (Bio-Rad CHEF-DRIII) was used (6 V/cm, 20-60 sec pulse overnight) to detect large-scale DNA fragmentation.

For z-VAD-fmk, the “protection/rescue of CTL from AICD” value [1] was “could not protect”, the “protection/rescue of CTL from AICD” value ([1]; listed as z-VAD-fink) was “did not prevent” and the “effect on PARP cleavage induced by staurosporine” value ([2]; Jurkat cells, z-VAD-fmk 100 μM, staurosporine 1 μM) was “blocked”. The “protection from staurosporine-induced death” value [3] was “protected”.
In the case of C[S+]([O-])c1ccc(-c2nc(-c3ccncc3)c(-c3ccc(F)cc3)[nH]2)cc1 (centres unmarked) [SB203580], the “protection/rescue of CTL from AICD” value [1] is reported as “could not protect”, the “level of hyper polarization of mitochondrial transmembrane potential” value [4] is reported as “decreased” and the BCI-XL expression [5] is reported as “non-selectively up regulated”. For the same compound, the Bcl-2 expression [5] was “non-selectively up regulated”.
In the case of CN[C@@H]1C[C@H]2O[C@@](C)([C@@H]1OC)n1c3ccccc3c3c4c(c5c6ccccc6n2c5c31)C(=O)NC4 [staurosporine], the PARP cleavage ([2]; Jurkat cells treated with staurosporine (1 μM)) is reported as “cleaved” and the “oligosomal DNA fragmentation” value [6] is reported as “clearly evident”.
For COc1cccc(-c2cc(=O)c3ccccc3o2)c1N [PD98059], the “protection/rescue of CTL from AICD” value [1] was “could not protect”.
